Results from ChEMBL document CHEMBL3217434, “Matrix-based multiparameter optimisation of glucokinase activators: the discovery of AZD1092” (Medchemcomm, 2011).
In brackets after ≈: the same amount, converted by molar mass.

System: not listed separately
Experiment: Clearance in dog
Type: ADME, organism-based, Canis lupus familiaris
Settings: in vivo

Row | SMILES | clearance [mL/min/kg]
1 | COC[C@H](C)Oc1cc(Oc2ccc(S(C)(=O)=O)cc2)cc(C(=O)Nc2nccs2)c1 | 7.2
2 | COC[C@H](C)Oc1cc(Oc2ccc(S(C)(=O)=O)cc2)cc(C(=O)Nc2nc(C)ns2)c1 | 0.5
3 | C[C@@H](CO)Oc1cc(Oc2ccc(C(=O)N3CCC3)cc2)cc(C(=O)Nc2ccn(C)n2)c1 | 14

System: not listed separately
Experiment: Clearance in rat
Type: ADME, organism-based
Settings: in vivo

Row | SMILES | clearance [mL/min/kg]
4 | COC[C@H](C)Oc1cc(Oc2ccc(C(=O)N(C)C)cc2)cc(C(=O)Nc2cc[nH]n2)c1 | 34
5 | COC[C@H](C)Oc1cc(Oc2ccc(S(C)(=O)=O)cc2)cc(C(=O)Nc2nccs2)c1 | 11
6 | COC[C@H](C)Oc1cc(Oc2ccc(S(C)(=O)=O)cc2)cc(C(=O)Nc2nc(C)ns2)c1 | 5.6
7 | C[C@@H](CO)Oc1cc(Oc2ccc(C(=O)N(C)C)cc2)cc(C(=O)Nc2ccn(C)n2)c1 | 31
8 | C[C@@H](CO)Oc1cc(Oc2ccc(C(=O)N3CCC3)cc2)cc(C(=O)Nc2ccn(C)n2)c1 | 14

System: not listed separately
Experiment: Solubility of the compound
Type: physicochemical
Settings: not given

Row | SMILES | solubility [µM]
9 | COC[C@H](C)Oc1cc(Oc2ccc(C(=O)N(C)C)cc2)cc(C(=O)Nc2cc[nH]n2)c1 | 730 (≈ 320 µg/mL)
10 | C[C@@H](CO)Oc1cc(Oc2ccc(C(=O)N(C)C)cc2)cc(C(=O)Nc2ccn(C)n2)c1 | > 1000
11 | C[C@@H](CO)Oc1cc(Oc2ccc(C(=O)N3CCC3)cc2)cc(C(=O)Nc2ccn(C)n2)c1 | 350 (≈ 158 µg/mL)

System: Rattus norvegicus
Experiment: Antidiabetic activity in high fat fed Zucker rat assessed as reduction of AUC of plasma glucose level at 10 mg/kg by oral glucose tolerance test
Type: functional
Set-up: scale not given: the % may be the effect or the level left
Settings: not given

Row | SMILES | Activity [%]
12 | COC[C@H](C)Oc1cc(Oc2ccc(S(C)(=O)=O)cc2)cc(C(=O)Nc2nccs2)c1 | 29

System: not listed separately
Experiment: Oral bioavailability in dog
Type: ADME, organism-based, Canis lupus familiaris
Settings: in vivo

Row | SMILES | bioavailability [%]
13 | COC[C@H](C)Oc1cc(Oc2ccc(S(C)(=O)=O)cc2)cc(C(=O)Nc2nccs2)c1 | 11
14 | COC[C@H](C)Oc1cc(Oc2ccc(S(C)(=O)=O)cc2)cc(C(=O)Nc2nc(C)ns2)c1 | 56
15 | C[C@@H](CO)Oc1cc(Oc2ccc(C(=O)N3CCC3)cc2)cc(C(=O)Nc2ccn(C)n2)c1 | 51

System: not listed separately
Experiment: Lipophilicity, log D of the compound
Type: physicochemical
Settings: octanol/water

Row | SMILES | logD
16 | COC[C@H](C)Oc1cc(Oc2ccc(C(=O)N(C)C)cc2)cc(C(=O)Nc2cc[nH]n2)c1 | 1.8
17 | C[C@@H](CO)Oc1cc(Oc2ccc(C(=O)N(C)C)cc2)cc(C(=O)Nc2ccn(C)n2)c1 | 1.7
18 | C[C@@H](CO)Oc1cc(Oc2ccc(C(=O)N3CCC3)cc2)cc(C(=O)Nc2ccn(C)n2)c1 | 1.8

System: Rattus norvegicus
Experiment: Antidiabetic activity in high fat fed Zucker rat assessed as reduction of AUC of plasma glucose level at 3 mg/kg by oral glucose tolerance test
Type: functional
Set-up: scale not given: the % may be the effect or the level left
Settings: not given

Row | SMILES | Activity [%]
19 | COC[C@H](C)Oc1cc(Oc2ccc(S(C)(=O)=O)cc2)cc(C(=O)Nc2nc(C)ns2)c1 | 27
20 | C[C@@H](CO)Oc1cc(Oc2ccc(C(=O)N3CCC3)cc2)cc(C(=O)Nc2ccn(C)n2)c1 | 24

System: not listed separately
Experiment: Apparent permeability from apical to basolateral side of human Caco2 cells
Type: ADME, cell-based
Settings: Caco-2

Row | SMILES | Papp A→B [×10⁻⁶ cm/s]
21 | COC[C@H](C)Oc1cc(Oc2ccc(C(=O)N(C)C)cc2)cc(C(=O)Nc2cc[nH]n2)c1 | 2.3
22 | C[C@@H](CO)Oc1cc(Oc2ccc(C(=O)N(C)C)cc2)cc(C(=O)Nc2ccn(C)n2)c1 | 1.7
23 | C[C@@H](CO)Oc1cc(Oc2ccc(C(=O)N3CCC3)cc2)cc(C(=O)Nc2ccn(C)n2)c1 | 1.8

System: not listed separately
Experiment: Volume of distribution at steady state in dog
Type: ADME, organism-based, Canis lupus familiaris
Settings: in vivo, read-out: Vdss

Row | SMILES | Vd [L/kg]
24 | COC[C@H](C)Oc1cc(Oc2ccc(S(C)(=O)=O)cc2)cc(C(=O)Nc2nccs2)c1 | 0.8
25 | COC[C@H](C)Oc1cc(Oc2ccc(S(C)(=O)=O)cc2)cc(C(=O)Nc2nc(C)ns2)c1 | 0.3
26 | C[C@@H](CO)Oc1cc(Oc2ccc(C(=O)N3CCC3)cc2)cc(C(=O)Nc2ccn(C)n2)c1 | 1.3

System: not listed separately
Experiment: Volume of distribution at steady state in rat
Type: ADME, organism-based
Settings: in vivo, read-out: Vdss

Row | SMILES | Vd [L/kg]
27 | COC[C@H](C)Oc1cc(Oc2ccc(C(=O)N(C)C)cc2)cc(C(=O)Nc2cc[nH]n2)c1 | 1.1
28 | COC[C@H](C)Oc1cc(Oc2ccc(S(C)(=O)=O)cc2)cc(C(=O)Nc2nccs2)c1 | 0.3
29 | COC[C@H](C)Oc1cc(Oc2ccc(S(C)(=O)=O)cc2)cc(C(=O)Nc2nc(C)ns2)c1 | 0.2
30 | C[C@@H](CO)Oc1cc(Oc2ccc(C(=O)N(C)C)cc2)cc(C(=O)Nc2ccn(C)n2)c1 | 1.9
31 | C[C@@H](CO)Oc1cc(Oc2ccc(C(=O)N3CCC3)cc2)cc(C(=O)Nc2ccn(C)n2)c1 | 1.8

System: not listed separately
Experiment: Oral bioavailability in rat
Type: ADME, organism-based
Settings: in vivo

Row | SMILES | bioavailability [%]
32 | COC[C@H](C)Oc1cc(Oc2ccc(C(=O)N(C)C)cc2)cc(C(=O)Nc2cc[nH]n2)c1 | 27
33 | COC[C@H](C)Oc1cc(Oc2ccc(S(C)(=O)=O)cc2)cc(C(=O)Nc2nccs2)c1 | 28
34 | COC[C@H](C)Oc1cc(Oc2ccc(S(C)(=O)=O)cc2)cc(C(=O)Nc2nc(C)ns2)c1 | 71
35 | C[C@@H](CO)Oc1cc(Oc2ccc(C(=O)N(C)C)cc2)cc(C(=O)Nc2ccn(C)n2)c1 | 78
36 | C[C@@H](CO)Oc1cc(Oc2ccc(C(=O)N3CCC3)cc2)cc(C(=O)Nc2ccn(C)n2)c1 | 30

Target: Voltage-gated inwardly rectifying potassium channel KCNH2 (Homo sapiens, UniProt Q12809)
Sequence (Q12809 whole entry): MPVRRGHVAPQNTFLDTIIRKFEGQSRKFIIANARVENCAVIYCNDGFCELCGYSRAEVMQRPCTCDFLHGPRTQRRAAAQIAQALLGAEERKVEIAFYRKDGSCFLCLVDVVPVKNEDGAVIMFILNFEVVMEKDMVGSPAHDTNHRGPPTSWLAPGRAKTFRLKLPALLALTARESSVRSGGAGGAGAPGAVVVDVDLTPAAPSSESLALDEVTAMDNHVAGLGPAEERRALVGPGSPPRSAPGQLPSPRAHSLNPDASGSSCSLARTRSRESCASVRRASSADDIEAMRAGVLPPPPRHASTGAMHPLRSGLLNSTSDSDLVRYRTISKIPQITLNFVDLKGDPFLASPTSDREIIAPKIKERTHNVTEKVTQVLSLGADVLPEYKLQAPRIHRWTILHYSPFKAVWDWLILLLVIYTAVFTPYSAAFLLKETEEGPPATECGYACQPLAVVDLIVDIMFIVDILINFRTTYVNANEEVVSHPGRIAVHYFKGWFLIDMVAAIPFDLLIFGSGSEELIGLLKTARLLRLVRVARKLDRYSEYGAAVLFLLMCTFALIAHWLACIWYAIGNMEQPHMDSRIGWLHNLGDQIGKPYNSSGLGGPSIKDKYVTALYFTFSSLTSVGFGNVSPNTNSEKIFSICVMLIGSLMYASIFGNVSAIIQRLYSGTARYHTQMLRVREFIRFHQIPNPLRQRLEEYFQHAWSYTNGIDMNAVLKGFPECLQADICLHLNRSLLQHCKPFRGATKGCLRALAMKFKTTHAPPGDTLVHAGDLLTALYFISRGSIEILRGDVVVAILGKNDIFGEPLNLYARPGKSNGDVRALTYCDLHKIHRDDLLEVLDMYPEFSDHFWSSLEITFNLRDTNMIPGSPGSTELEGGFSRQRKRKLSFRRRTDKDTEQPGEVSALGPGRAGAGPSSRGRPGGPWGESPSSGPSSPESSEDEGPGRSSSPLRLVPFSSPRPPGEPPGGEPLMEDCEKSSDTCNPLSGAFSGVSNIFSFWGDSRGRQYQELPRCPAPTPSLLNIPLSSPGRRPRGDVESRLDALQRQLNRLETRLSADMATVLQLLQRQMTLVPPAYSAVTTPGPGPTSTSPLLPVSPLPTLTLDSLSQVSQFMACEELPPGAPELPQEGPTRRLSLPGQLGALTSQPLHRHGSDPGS
Experiment: Inhibition of human ERG
Settings: not given

Row | SMILES | IC50 [nM]
37 | COC[C@H](C)Oc1cc(Oc2ccc(C(=O)N(C)C)cc2)cc(C(=O)Nc2cc[nH]n2)c1 | > 95000
38 | C[C@@H](CO)Oc1cc(Oc2ccc(C(=O)N(C)C)cc2)cc(C(=O)Nc2ccn(C)n2)c1 | > 100000
39 | C[C@@H](CO)Oc1cc(Oc2ccc(C(=O)N3CCC3)cc2)cc(C(=O)Nc2ccn(C)n2)c1 | 70000

Target: T1, Hexokinase-4 (Homo sapiens, UniProt P35557)
T1 sequence (P35557 whole entry): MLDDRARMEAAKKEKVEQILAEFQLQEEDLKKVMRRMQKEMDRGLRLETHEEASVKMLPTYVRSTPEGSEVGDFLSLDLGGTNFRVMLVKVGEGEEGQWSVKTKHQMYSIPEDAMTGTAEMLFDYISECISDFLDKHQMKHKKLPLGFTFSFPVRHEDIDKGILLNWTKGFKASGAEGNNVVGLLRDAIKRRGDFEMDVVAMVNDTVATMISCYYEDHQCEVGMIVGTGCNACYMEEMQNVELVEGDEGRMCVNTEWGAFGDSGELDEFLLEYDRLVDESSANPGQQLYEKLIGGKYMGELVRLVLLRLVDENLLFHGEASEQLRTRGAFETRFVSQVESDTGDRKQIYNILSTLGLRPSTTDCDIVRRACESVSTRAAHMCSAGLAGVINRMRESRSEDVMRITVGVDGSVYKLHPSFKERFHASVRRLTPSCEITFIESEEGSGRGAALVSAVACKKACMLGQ
Experiment: Activation of glucokinase (unknown origin)
Settings: not given

Row | SMILES | EC50 [nM]
40 | COC[C@H](C)Oc1cc(Oc2ccc(C(=O)N(C)C)cc2)cc(C(=O)Nc2cc[nH]n2)c1 | 50
41 | C[C@@H](CO)Oc1cc(Oc2ccc(C(=O)N(C)C)cc2)cc(C(=O)Nc2ccn(C)n2)c1 | 40
42 | C[C@@H](CO)Oc1cc(Oc2ccc(C(=O)N3CCC3)cc2)cc(C(=O)Nc2ccn(C)n2)c1 | 30
